Molecules are shown by their SMILES.

For 122 compounds, melting point results are on record in a melting point compilation (Tetko et al.).

By melting point is commonly meant the temperature of the solid-liquid transition. `COc1cc(CCC(=O)O)cc(OC)c1`: the melting point was 54 to 56 °C. To `CCc1cc(=O)[nH]c(-c2ccc(Cl)nc2)n1` belongs 208 to 210 °C. Compound `Cc1ccc(C)c(NC(N)=S)c1` showed a melting point of 140 to 142 °C.

On to `CC(=O)NC(Cc1c[nH]c2ccc(Br)cc12)C(=O)O` (configuration not stated), for which the melting point is 206 to 208 °C.

In turn, `CCN1CCc2nc(N)sc2C1` yielded a melting point of 71 to 80 °C. For the compound `CCc1cc2c(C)cc(=O)oc2cc1O`, the melting point was in the range of 216 to 218 °C. Compound `Nc1cccc(-c2cn[nH]c2)c1` displayed a melting point of 189 to 191 °C. The compound `O=c1ccnc(-c2ccccc2)[nH]1` showed a melting point of 204 to 206 °C. Consider `Cn1ccnc1-c1nnc(N)s1`, for which the melting point fell in the range of 263 to 265 °C. The compound `NS(=O)(=O)NCc1ccccn1` showed a melting point of 138 to 140 °C. Take `Cc1ccc(N=C=O)c(C#N)c1`: the melting point is 52 to 54 °C. In the case of `CCN(C(=O)N1CCC(C(=O)O)CC1)C(C)C`, the melting point lay within 107 to 109 °C.

On to `CC(C)(C)c1ccc(C2(C(=O)O)CCC2)cc1`, for which the melting point was in the range of 179 to 181 °C.

With `O=c1cc(CS)nc2ccccn12`, the melting point was 119 to 121 °C. `CC1CCCC(C(N)C(=O)O)C1` (configuration not stated) yielded a melting point of 301 to 303 °C. Compound `FC(F)Oc1ccccc1-c1noc(CCl)n1` yielded a melting point of less than 17 °C.

Take `NS(=O)(=O)c1ccc(OCCC(=O)O)cc1`: the melting point lay within 140 to 142 °C. For the compound `O=c1[nH]c(CCl)nc2scc(-c3ccco3)c12`, the melting point was 230 to 232 °C. For `Cc1cc(C)n(N)c(=O)c1C#N`, the melting point was in the range of 164 to 166 °C. For the compound `CCOC(=O)c1cnc2ccccc2c1-n1cncn1`, the melting point was in the range of 84 to 86 °C. On to `CC(C)(C)C(=O)Nc1ccc(Cl)c(C(F)(F)F)c1`, for which the melting point was in the range of 132 to 134 °C. The compound `O=Cc1cscn1` had a melting point of 61 to 63 °C. In turn, `Cc1nc(N)cc(C2CC2)n1` showed a melting point of 159 to 161 °C.

As to `CS(=O)c1cccc(N)c1` (configuration not stated), the melting point lay in the range of 110 to 112 °C. `N#Cc1ccc(N2CCCC(Br)C2=O)cc1` (configuration not stated) displayed a melting point of 124 to 126 °C. Compound `O=C1NC(=O)C(c2ccc(F)c(Br)c2)N1` (configuration not stated) displayed a melting point of 173 to 175 °C. `Cc1n[nH]c(C)c1C=O` came in with a melting point of 85 to 87 °C.

For the compound `O=C(O)CCCCCN1C(=O)CSC1=S`, the melting point lay in the range of 85 to 87 °C. `Cn1c(-c2ccccc2)cnc1S` registered a melting point of 180 to 182 °C. In the case of `O=C(O)C=C1CCCCC1`, the melting point is 90 to 92 °C.

The compound `CC(=O)c1cc2c(cc1[N+](=O)[O-])OCO2` displayed a melting point of 121 to 123 °C. In the case of `Nc1ccc2[nH]c(-c3cc(F)ccc3F)nc2c1` it was 188 to 190 °C; in that of `COc1cccc(-c2nonc2N)c1`, 74 to 76 °C. As to `COc1cc(C(=O)O)ccc1OCc1c(C)noc1C`, the melting point lay within 216 to 218 °C. For `O=C(CBr)c1c[nH]c2ncccc12`, the melting point fell in the range of 209 to 211 °C. In turn, `CC(C)c1cc(C(=O)O)on1` displayed a melting point of 74 to 76 °C. In the case of `O=C(O)Cc1ccc(-n2cnnn2)cc1`, the melting point is 171 to 173 °C. Compound `CCOc1ccc(C(C)=O)cc1CCl` yielded a melting point of 80 to 82 °C. Consider `CS(=O)(=O)OC1CCCC(S(C)(=O)=O)C1` (configuration not stated), for which the melting point lay in the range of 119 to 121 °C. `N#Cc1ccc(-c2nnco2)cc1` had a melting point of 142 to 144 °C. As for `O=C(O)c1cn(-c2ccccc2C(F)(F)F)nn1`, the melting point lay within 129 to 131 °C.

`O=C(O)CC1SC(=NN=Cc2ccc(Br)s2)NC1=O` (configuration not stated) displayed a melting point of 278 to 280 °C. `CCOC(=O)CN1CCN(S(=O)(=O)c2ccccc2)CC1` registered a melting point of 75 to 77 °C. To `Cn1nc(C2CCCCC2)cc1N` belongs 169 to 171 °C; to `CS(=O)(=O)c1cc(C(=O)O)cs1`, 204 to 206 °C. As to `CN(C)S(=O)(=O)c1cccc(-c2nnc(S)n2N)c1`, the melting point is 200 to 202 °C. `N#CC1(NC(=O)c2ccccc2)CCCC1` gave a melting point of 130 to 132 °C. As to `CS(=O)(=O)CCCS(=O)(=O)Cl`, the melting point lay in the range of 62 to 64 °C.

On to `Nc1nnc(Cc2ccc(Cl)cc2)o1`, for which the melting point fell in the range of 167 to 169 °C. In the case of `CC1(c2ccc(OC(F)(F)F)cc2)NC(=O)NC1=O` (configuration not stated), the melting point lay within 151 to 153 °C. The compound `Cn1c(=O)n(CCC(=O)O)c2ccccc21` registered a melting point of 226 to 228 °C. Regarding `O=C(O)c1cccnc1N1CCN(Cc2cccc(Cl)c2)CC1`, the melting point fell in the range of 188 to 190 °C. On to `Cc1nc(C)c(NC(=O)OC(C)(C)C)s1`, for which the melting point was 90 to 92 °C. The compound `CCOC(=O)c1n[nH]c(C(O)c2ccccc2)n1` (configuration not stated) yielded a melting point of 49 to 51 °C.

Regarding `COc1ccc(CNS(=O)(=O)c2c[nH]nc2N)cc1`, the melting point fell in the range of 137 to 139 °C. Take `NC(=O)CCOc1cccc(F)c1`: the melting point is 94 to 96 °C. In turn, `Cc1ccc(NCCC(=O)O)nc1` came in with a melting point of 201 to 203 °C. Consider `N#Cc1cccc(CNc2ccc3[nH]c(=O)[nH]c3c2)c1`, for which the melting point was in the range of 261 to 263 °C.

`CN(C)S(=O)(=O)c1ccc(C(=O)O)cc1` gave a melting point of 249 to 251 °C. In the case of `CC(C)Cn1[nH]c(-c2ccccc2)cc1=N` it was 99 to 101 °C. In the case of `Nc1ccc(F)c(NC(=O)C2CCCCC2)c1` it was 157 to 159 °C. `Nc1nc2c(s1)CCCC2` showed a melting point of 30 to 32 °C. To `O=C(c1ccc(S(=O)(=O)Cl)cc1)N1CCCCC1` belongs 97 to 99 °C; to `Cc1ccc(Cl)c2ccc(N)nc12`, 104 to 106 °C; to `Nc1nc(Cl)c(Cl)cc1[N+](=O)[O-]`, 126 to 128 °C. `CC(C)(C)OC(=O)N1CCCC(C(C)(C)C(=O)O)C1` (configuration not stated): the melting point was in the range of 96 to 98 °C.

Compound `CC(C)(C)OC(=O)NC1CC(O)C1` (configuration not stated) showed a melting point of 108 to 110 °C. `CC(=O)NC1(C(N)=NO)CCN(C)CC1`: the melting point was 202 to 204 °C. In the case of `O=C(O)C(Cc1ccccc1)NC(=O)C12CC3CC(CC(C3)C1)C2` (configuration not stated) it was 162 to 164 °C. In the case of `CCOc1ccc([N+](=O)[O-])cc1C=O` it was 66 to 68 °C; in that of `COC(=O)c1cnc2c(c1)c(C)nn2C`, 129 to 131 °C; in that of `Cc1n[nH]c(C)c1CC(C)C(=O)O` (configuration not stated), 170 to 172 °C. With `CC(N)c1cccc(N2CCCS2(=O)=O)c1` (configuration not stated), the melting point lay within 60 to 62 °C.

`OCc1cnn(Cc2ccccc2)c1` yielded a melting point of 55 to 57 °C. Compound `OCc1ncc(-c2ccccc2)o1` had a melting point of 117 to 119 °C.

Regarding `N#Cc1cnc2ccccc2c1Cl`, the melting point fell in the range of 128 to 130 °C. Take `Cc1cc(CCC(=O)O)c(C)s1`: the melting point fell in the range of 57 to 59 °C. In the case of `CC(C)c1cc(N)no1` it was 64 to 66 °C; in that of `O=C(O)CCNc1ncc(C(F)(F)F)cc1Cl`, 131 to 133 °C; in that of `CC(C)(O)COc1ccc(N)cc1`, 55 to 57 °C.

For the compound `NC(=S)CCCc1ccccc1`, the melting point is 59 to 61 °C. `N#CCc1nc2cc(Cl)ccc2c(=O)[nH]1`: the melting point was 282 to 284 °C. Take `O=C(O)CNCCO`: the melting point was 184 to 186 °C.

`CCOc1cccc2cc(C(C)=O)oc12` yielded a melting point of 72 to 74 °C. In the case of `O=C(O)CCc1nc(-c2ccsc2)no1` it was 153 to 155 °C; in that of `O=C(O)c1ccc(F)c(S(=O)(=O)NC2CC2)c1`, 226 to 228 °C; in that of `FC(F)(F)Cn1cnnc1S`, 93 to 95 °C. With `O=C(O)C1CC(=O)N(CCN2CCOCC2)C1` (configuration not stated), the melting point fell in the range of 159 to 161 °C.

For the compound `COC(=O)C(NC(c1ccccc1)(c1ccccc1)c1ccccc1)C(C)O` (configuration not stated), the melting point lay within 115 to 117 °C. To `CCOC(=O)Cc1nn[nH]n1` belongs 120 to 127 °C; to `CC(C)CCn1cc(C(=O)O)nn1`, 187 to 189 °C. In turn, `O=C(O)c1c[nH]cc1-c1ccc2c(c1)OCCO2` had a melting point of 196 to 198 °C.

For `N#Cc1ccccc1OCC(=O)O`, the melting point was in the range of 182 to 184 °C. Compound `COc1ccc2[nH]c3c(c2c1)CCCC3` registered a melting point of 59 to 61 °C. With `O=[N+]([O-])c1ccc(O)nc1Cl`, the melting point fell in the range of 199 to 201 °C. To `O=C(O)C=Cc1ccc(-n2cc(Br)cn2)c(F)c1` belongs 204 to 206 °C; to `CN(C)c1ccc(/C=C/c2cc(C(=O)O)c3cc(Br)ccc3n2)cc1`, 298 to 300 °C. For the compound `NC(=O)COc1ccc(N)cc1`, the melting point was in the range of 124 to 126 °C. For the compound `NC(=O)C1COc2ccccc2O1` (configuration not stated), the melting point fell in the range of 141 to 143 °C. The compound `COC(=O)c1sc2ncc(C=O)cc2c1C` came in with a melting point of 199 to 201 °C. `CCOC(=O)C(C#N)C1C(=O)N(C)c2ccccc21` (configuration not stated) returned a melting point of 119 to 121 °C. For the compound `O=C(O)c1ccc(S(=O)(=O)N2CCCCCC2)cc1`, the melting point lay within 235 to 237 °C. As for `CC1CC(C(=O)O)CC(C)(C)C1` (configuration not stated), the melting point lay in the range of 39 to 41 °C.

`O=C(O)c1cc(S(=O)(=O)Cl)c(F)c(Cl)c1F` gave a melting point of 191 to 193 °C. In the case of `NC(=S)c1cccc(-c2nnc(N)o2)c1`, the melting point was 259 to 261 °C. As to `O=C(CCl)Nc1ccc(F)cc1Cl`, the melting point lay in the range of 76 to 78 °C. On to `Cc1nn(-c2ccccc2)c(C)c1N`, for which the melting point fell in the range of 61 to 63 °C. On to `Cc1[nH]c(=O)[nH]c(=O)c1CCC(=O)O`, for which the melting point was 306 to 308 °C. As to `O=C(O)c1ccccc1NS(=O)(=O)c1ccc(Cl)c(Cl)c1`, the melting point is 143 to 147 °C. In turn, `O=C(O)c1ccccc1C(=O)Nc1ccc(-c2ccccc2)cc1` showed a melting point of 292 to 294 °C.

Take `O=C(O)CNC1CCCC1`: the melting point was 210 to 212 °C.

In the case of `NCc1nnc2n1CCCC2C(F)(F)F` (configuration not stated), the melting point lay in the range of 81 to 83 °C. The compound `O=C(O)CCC(=O)N1CCN(c2ncccn2)CC1` registered a melting point of 166 to 168 °C.

On to `CN(c1cc(C(=O)O)ccn1)C1CCCC1`, for which the melting point was in the range of 179 to 181 °C.

In the case of `Cn1c(Cl)nc2c1c(=O)[nH]c(=O)n2C`, the melting point is 299 to 301 °C. The compound `N#Cc1cccc(-c2nnc(N)o2)c1` gave a melting point of 253 to 255 °C. In the case of `NCc1ccc(N2CCC(O)CC2)c(F)c1`, the melting point was in the range of 104 to 106 °C. Turning to `CN(CC(=O)O)C(=O)Nc1cccc2ccccc12`, the melting point was in the range of 126 to 128 °C.

With `O=S(=O)(c1ccccc1O)C(F)(F)F`, the melting point lay in the range of 47 to 49 °C. In turn, `N#Cc1ccc(-c2ccncc2)[nH]c1=O` returned a melting point of 339 to 341 °C. In turn, `O=C(O)COc1ccc(Cl)cc1Br` registered a melting point of 123 to 125 °C. In the case of `CC(C)c1nnc(N)o1`, the melting point lay in the range of 184 to 186 °C.
